# Literature values in US20110301091A1, “COMPOSITIONS AND METHODS FOR REDUCING THE SIGNS OF AGING OF THE SKIN” (priority 2008, published 2011).
# How the values were obtained:
# skin characteristics = conditions: in vivo
# photoaged skin = conditions: topical application
# [1] = test system: UV-irradiated human fibroblasts
# photoaging = conditions: topical application of folic acid and creatine
# dermal aging = conditions: animal studies; mechanism of reducing oxidative stress and apoptosis
# [2] = test system: heparan-sulfate PGs (HS-PGs); conditions: organotypical model of corticosteroid atrophic human skin
# MMP-1 = conditions: human keratinocytes; via ERK and AP-1 inhibition
# [3] = test system: UV-induced ceramide production; conditions: free radical scavenger
# wrinkle formation = conditions: clinical study
compound,measurement,setting,value
"C[C@]12CC[C@H](O)CC1=CC[C@@H]1[C@@H]2CC[C@]2(C)C(=O)CC[C@@H]12 [Dehydroepiandrosterone (DHEA), Dehydroepiandrosterone]",effects on skin characteristics,skin characteristics,beneficial effects on skin characteristics
CCCCCCCC(=O)C(CCCCCC)C(=O)NC(CO)CO (stereo not drawn) [K6PC-5],"skin barrier, fibroblast count and function",photoaged skin,improving skin barrier and increasing fibroblast count and function
COc1cc(O)c(C(=O)[C@@H]2[C@H](CC=C(C)C)C(C)=CC[C@H]2c2ccccc2)c(O)c1 [Panduratin A],matrix metalloproteinase (MMP) I synthesis,[1],decreased
same,type I procollagen synthesis,[1],increased
Oc1ccc(C=Cc2cc(O)cc(O)c2)cc1 [Resveratrol],aging and lifespan,laboratory animals,slow down aging and extend the lifespan
CN(CC(=O)O)C(=N)N [creatine],photoaging,photoaging,improved photoaging
Nc1nc2ncc(CNc3ccc(C(=O)N[C@@H](CCC(=O)O)C(=O)O)cc3)nc2c(=O)[nH]1 [folic acid],photoaging,photoaging,improved photoaging
COc1ccc2[nH]cc(CCNC(C)=O)c2c1 [melatonin],dermal aging,dermal aging,slow down dermal aging
C-Xyloside,expression of heparan-sulfate PGs (HS-PGs),[2],improved expression of heparan-sulfate PGs
Triphlorethol-A,MMP-1 inhibition,MMP-1,inhibition of MMP-1
Vitamin E,UV-induced ceramide production,[3],inhibited
Ziyuglycoside,expression of type I collagen,type I collagen,increased the expression of type I collagen in a dose-dependent manner
same,wrinkle formation,wrinkle formation,decrease wrinkle formation
growth hormone,dermal aging,dermal aging,slow down dermal aging
lunasin,epigenetic patterns,epigenetic patterns,modify epigenetic patterns
